Assay results reported in ChEMBL document CHEMBL2331413, “Novel in vivo active anti-malarials based on a hydroxy-ethyl-amine scaffold” (Bioorg Med Chem Lett, 2013).

Assays:
Assay type in all cases: functional, organism-based
Plasmodium falciparum [1] = assay: Antimalarial activity against chloroquine-sensitive Plasmodium falciparum NF54 infected in RBC after 72 hrs by [3H]hypoxanthine incorporation assay in presence of 50 % serum
Plasmodium falciparum [2] = assay: Antimalarial activity against chloroquine-sensitive Plasmodium falciparum NF54 infected in RBC after 72 hrs by [3H]hypoxanthine incorporation assay in presence of 0.5 % albumax
Plasmodium falciparum [3] = assay: Antimalarial activity against chloroquine-sensitive Plasmodium falciparum NF54 infected in RBC after 24 hrs by [3H]hypoxanthine incorporation assay in presence of 0.5 % albumax

Compound	IC50 (Plasmodium falciparum [1])	IC50 (Plasmodium falciparum [2])	IC50 (Plasmodium falciparum [3])
CC1CN(c2ccc(C(=O)N[C@@H](Cc3ccccc3)[C@H](O)CN[C@H](C)c3ccccc3)cc2)CCN1 (stereo partly specified)	300 nM	190 nM	
CC(C)(C)c1ccc(/C=C/C(=O)N[C@@H](Cc2ccccc2)[C@H](O)CNC(C)(C)c2ccccc2)cc1		444 nM	
CC(C)(NC[C@@H](O)[C@H](Cc1ccccc1)NC(=O)Cc1cccc2ccccc12)c1ccccc1		> 500 nM	
C[C@@H](NC[C@@H](O)[C@H](Cc1ccccc1)NC(=O)c1ccc(O)c(CN2CCCC2)c1)c1ccccc1	386 nM	261 nM	
CN1CCN(c2ccc(C(=O)N[C@@H](Cc3ccccc3)[C@H](O)CNC3CCCC3)cc2)CC1	75 nM	81 nM	
CC(=O)N[C@@H](Cc1ccccc1)[C@H](O)CNC(C)(C)c1ccccc1		> 500 nM	
CC(=O)N1CCN(c2ccc(C(=O)N[C@@H](Cc3ccccc3)[C@H](O)CNC(C)(C)c3ccccc3)cc2)CC1		162 nM	
CC(C)(NC[C@@H](O)[C@H](Cc1ccccc1)NC(=O)c1cccc2ncccc12)c1ccccc1		> 500 nM	
CC(C)(NC[C@@H](O)[C@H](Cc1ccccc1)NC(=O)Cc1ccccc1)c1ccccc1		> 500 nM	
CC(C)(NC[C@@H](O)[C@H](Cc1ccccc1)NC(=O)c1ccc2cc[nH]c2c1)c1ccccc1		146 nM	
CC(NC[C@@H](O)[C@H](Cc1ccccc1)NC(=O)c1ccc(N2CCN(C)CC2)cc1)c1ccc(O)c(CN2CCCCC2)c1 (stereo partly specified)	125 nM	203 nM	
C[C@@H](NC[C@@H](O)[C@H](Cc1ccccc1)NC(=O)c1ccc(N2CCN(Cc3ccccc3)CC2)cc1)c1ccccc1	39 nM	21 nM	
Cc1cc(C(=O)N[C@@H](Cc2ccccc2)[C@H](O)CNC(C)(C)c2ccccc2)nn1C		> 500 nM	
CC(=O)Nc1cccc(C(=O)N[C@@H](Cc2ccccc2)[C@H](O)CNC(C)(C)c2ccccc2)c1		44 nM	
CN(C)c1cccc(C(=O)N[C@@H](Cc2ccccc2)[C@H](O)CNC(C)(C)c2ccccc2)c1		102 nM	
C[C@@H](NC[C@@H](O)[C@H](Cc1ccccc1)NC(=O)c1cccc(C(=O)N2CCCC2)c1)c1ccccc1	9.3 nM	4.9 nM	

Compound	IC50 (Plasmodium falciparum [1])	IC50 (Plasmodium falciparum [2])	IC50 (Plasmodium falciparum [3])
Cn1cnc(C(=O)N[C@@H](Cc2ccccc2)[C@H](O)CNC(C)(C)c2ccccc2)c1		> 500 nM	
CCCN(CCC)Cc1ccc(Nc2ccc(C(=O)N[C@@H](Cc3ccccc3)[C@H](O)CN[C@H](C)c3ccccc3)cc2)cc1O	20 nM	22 nM	77 nM
CC(C)(NC[C@@H](O)[C@H](Cc1ccccc1)NC(=O)c1cccc(C(F)(F)F)c1)c1ccccc1		300 nM	
C[C@@H](NC[C@@H](O)[C@H](Cc1ccccc1)NC(=O)c1cccc(C(=O)N2CCN(C)CC2)c1)c1ccccc1	102 nM	98 nM	
COc1cccc(C(=O)N[C@@H](Cc2ccccc2)[C@H](O)CNC(C)(C)c2ccccc2)c1		349 nM	
CN1CCN(c2ccc(C(=O)N[C@@H](Cc3ccccc3)C(F)(F)CNC3CCCC3)cc2)CC1	> 500 nM	> 500 nM	
CCCNC(=O)c1cccc(C(=O)N[C@@H](Cc2ccccc2)[C@H](O)CN[C@H](C)c2ccccc2)c1	30 nM	12 nM	
CC(C)(NC[C@@H](O)[C@H](Cc1ccccc1)NC(=O)c1cccc(-c2ccccc2)c1)c1ccccc1		37 nM	
C[C@@H](NC[C@@H](O)[C@H](Cc1ccccc1)NC(=O)c1cccc(C(=O)N2CCCCCC2)c1)c1ccccc1	13 nM	3.8 nM	
Cn1cc(C(=O)N[C@@H](Cc2ccccc2)[C@H](O)CNC(C)(C)c2ccccc2)c2ccccc21		> 500 nM	
CC(C)(NC[C@@H](O)[C@H](Cc1ccccc1)NC(=O)c1ccncc1)c1ccccc1		> 500 nM	
CC(C)(NC[C@@H](O)[C@H](Cc1ccccc1)NC(=O)c1ccc(Cl)cc1)c1ccccc1		349 nM	
COCCCC(=O)N[C@@H](Cc1ccccc1)[C@H](O)CNC(C)(C)c1ccccc1		> 500 nM	
CC(C)C[C@H](NC(=O)c1ccc(N2CCN(C)CC2)cc1)[C@H](O)CNC1CCCC1	> 500 nM	> 500 nM	
CC(C)(NC[C@@H](O)[C@H](Cc1ccccc1)NC(=O)C1CCCC1)c1ccccc1		> 500 nM	
CN1CCCc2cc(C(=O)N[C@@H](Cc3ccccc3)[C@H](O)CNC(C)(C)c3ccccc3)ccc21		> 500 nM	

Results, then the compound that gave them:

IC50 (Plasmodium falciparum [1])	IC50 (Plasmodium falciparum [2])	IC50 (Plasmodium falciparum [3])	Compound
34 nM	16 nM		CCCN(CCC)C(=O)c1cccc(C(=O)N[C@@H](Cc2ccccc2)[C@H](O)CNC2CCOCC2)c1
	> 500 nM		CCCN(CCC)C(=O)c1cccc(C(=O)N[C@@H](Cc2ccccc2)[C@H](O)CN2CCN(Cc3ccccc3)CC2)c1
	11 nM		CCCN(CCC)C(=O)c1cccc(C(=O)N[C@@H](Cc2ccccc2)[C@H](O)CNC2Cc3ccccc3C2)c1
	186 nM		CCCN(CCC)C(=O)c1cccc(C(=O)N[C@@H](Cc2ccccc2)[C@H](O)CNCCc2ccccc2)c1
150 nM	78 nM		CCCN(CCC)C(=O)c1cccc(C(=O)N[C@@H](Cc2ccccc2)[C@H](O)CNC(C)C)c1
40 nM	7.6 nM		CCCN(CCC)C(=O)c1cccc(C(=O)N[C@@H](Cc2ccccc2)[C@H](O)CNC(C)(C)c2ccccc2)c1
25 nM	< 7.8 nM		CCCN(CCC)C(=O)c1cccc(C(=O)N[C@@H](Cc2ccccc2)[C@H](O)CNC(C)(C)c2cccc(OC)c2)c1
> 500 nM	> 500 nM		CCCN(CCC)C(=O)c1cccc(C(=O)N[C@H](CCNC(C)C)Cc2ccccc2)c1
50 nM	9.6 nM		CCCN(CCC)C(=O)c1cccc(C(=O)N[C@@H](Cc2ccccc2)[C@H](O)CNC(C)(C)c2cccc(F)c2)c1
142 nM	21 nM		CCCN(CCC)C(=O)c1cccc(C(=O)N[C@@H](Cc2ccccc2)[C@H](O)CNC(C)(C)c2ccccc2F)c1
> 500 nM	> 500 nM		CCCN(CCC)C(=O)c1ccccc1C(=O)N[C@@H](Cc1ccccc1)[C@H](O)CN[C@H](C)c1ccccc1
466 nM	324 nM		CCCN(CCC)C(=O)c1cccc(C(=O)N[C@@H](Cc2ccccc2)[C@H](O)CN[C@@H](C)C2CCCCC2)c1
435 nM	116 nM		CCCN(CCC)C(=O)c1cccc(C(=O)N[C@@H](Cc2ccccc2)[C@H](O)CNC2(c3ccccc3)CC2)c1
> 500 nM	> 500 nM		CCCN(CCC)C(=O)c1cccc(C(=O)N[C@@H](Cc2ccccc2)[C@@H](O)CNCCCc2ccccc2)c1
110 nM	24 nM		CCCN(CCC)C(=O)c1cccc(C(=O)N[C@@H](Cc2ccccc2)[C@H](O)CNC(C)(C)c2ccc(F)cc2)c1
44 nM	13 nM		CCCN(CCC)C(=O)c1cccc(C(=O)N[C@@H](Cc2ccccc2)[C@H](O)CNC(C)(C)c2ccc(OC)cc2)c1
126 nM	43 nM		CCCN(CCC)C(=O)c1cccc(C(=O)N[C@@H](Cc2ccccc2)[C@H](O)CNCCCc2ccccc2)c1
48 nM	11 nM		CCCN(CCC)C(=O)c1cccc(C(=O)N[C@@H](Cc2ccccc2)[C@H](O)CN[C@H](C)C2CCCCC2)c1
	48 nM		CCCN(CCC)C(=O)c1cccc(C(=O)N[C@@H](Cc2ccccc2)[C@H](O)CNC2CCc3ccccc32)c1 (stereo partly specified)
> 500 nM	> 500 nM		CCCN(CCC)C(=O)c1cccc(C(=O)N[C@@H](Cc2ccccc2)[C@H](O)CNC2CCN(C)CC2)c1
8.6 nM	< 1.5 nM		CCCN(CCC)C(=O)c1cccc(C(=O)N[C@@H](Cc2ccccc2)[C@H](O)CNC(C)(C)c2cccc(C#N)c2)c1
28 nM	14 nM		CCCN(CCC)C(=O)c1cccc(C(=O)N[C@@H](Cc2ccccc2)[C@H](O)CNC2CCCCC2)c1
	21 nM		CCCN(CCC)C(=O)c1cccc(C(=O)N[C@@H](Cc2ccccc2)[C@H](O)CN[C@@H](C)c2ccccc2)c1
	> 500 nM		CCCN(CCC)C(=O)c1cccc(C(=O)N[C@@H](Cc2ccccc2)[C@H](O)CNCc2ccccc2)c1
66 nM	24 nM		CCCN(CCC)C(=O)c1cccc(C(=O)N[C@@H](Cc2ccccc2)[C@H](O)CNC(C)(C)C)c1
168 nM	12 nM		CCCN(CCC)C(=O)c1cccc(C(=O)N[C@@H](Cc2ccccc2)[C@H](O)CNC2(c3ccccc3)CCCC2)c1
	> 500 nM		CCCN(CCC)C(=O)c1cccc(C(=O)N[C@@H](Cc2ccccc2)[C@H](O)CN2CCN(C(C)=O)CC2)c1
188 nM	55 nM		CCCN(CCC)C(=O)c1cccc(C(=O)N[C@@H](Cc2ccccc2)[C@H](O)CNC(C)(C)c2ccc(C#N)cc2)c1
143 nM	45 nM		CCCN(CCC)C(=O)c1cccc(C(=O)N[C@@H](Cc2ccccc2)[C@H](O)CNC(C)(C)c2ccc3ccccc3c2)c1
